doi:10.1101/2022.12.01.518643 (bioRxiv, 2022)
pIC50: −log10 of the molar value. Where two headings read alike, the source gives them in different places.

Legend:
[1] = target: soluble DP4 (HLA-DPA1*01:03/DPB1*04:01) (human)
[2] = target: soluble recombinant HLA-DR DRB1*15:01 (DR2b) (human)
[3] = target: soluble recombinant HLA-DR DRB1*15:01 (DR2b) (human); test: fluorescence polarisation
[4] = target: DRB5*01:01 (DR2a) (Homo sapiens, UniProt P01903+Q30154); test: Fluorescence polarization competition binding assay, DR2a; conditions: FP competition; Alexa488 influenza hemagglutinin probe 25 nM; DR2a-CLIP 250 nM; HLA-DM 500 nM; 37 °C, 24 h
[5] = test system: peptide-expanded T cells from partially HLA-matched donors; test: IFN-γ ELISpot, single-peptide in vitro expanded T cells with single allele APC; type: cell-based, human; conditions: for minimal activating peptide concentration: dose range 10 – 10^−7 μg/mL; for T cell recognition, IFN-γ ELISpot: expanded T cells from HLA-matched donors
[6] = test system: relevant alleles (DP4.1, DR2b, DR2a); test: Fluorescence polarization competition binding assay, relevant alleles; parameters: species or system human; conditions: six representative HLA-DR peptides
[7] = test system: single-peptide-expanded T cell lines; test: Intracellular cytokine staining (ICS) of single-peptide-expanded T cell lines; type: cell-based, human; conditions: single allele APC, 1 μg/mL
[8] = target: DRB1*15:01 (DR2b) (Homo sapiens, UniProt P01903+P01911); test: Fluorescence polarization competition binding assay, DR2b; conditions: FP competition; Alexa488 MBP probe 25 nM; DR2b-CLIP 500 nM; HLA-DM 500 nM; 37 °C, 24 h
[9] = target: soluble recombinant HLA-DR DRB5*01:01 (DR2a) (human)
[10] = test system: T cell lines expanded in vitro with OC43 or SARS-CoV-2 peptides; test: IFN-γ ELISpot cross-reactivity between OC43 peptides and homologs of other coronaviruses; conditions: Table 1
[11] = target: soluble recombinant HLA-DR DRB5*01:01 (DR2a) (human); test: fluorescence polarisation
[12] = target: DP4 (HLA-DPA1*01:03/DPB1*04:01), DP4.1 (Homo sapiens, UniProt P04440+P20036); test: Fluorescence polarization competition binding assay, DP4.1; conditions: FP competition; Alexa488 oxytocinase probe 25 nM; DP4.1-Clip 250 nM; HLA-DM 500 nM; 37 °C, 24 h

“OC43 envelope protein peptide 62–78 (P14)” was tested, and the pIC50 [1] was greater than 5.00.
Substance OC43 spike peptide 271–286 (P13) has a pIC50 [2] greater than 6.00.
For “OC43 hemagglutinin esterase peptide 93–107 (P8)”, the pIC50 [3] was greater than 6.00.
“LFYTQVYKNMAVYRS [Peptide P9, OC43 hemagglutinin esterase 128–142, naturally processed peptide eluted from HLA-DR]” was tested, and the pIC50 [4] was greater than 6.00, the “minimal activating peptide concentration” value ([5]; donor 40) was 1 µg/mL and the “binding to DR2a / DR2b allotypes” value [6] was “both allotypes”.
Work on OC43 spike peptide 1085–1099 (P11) yielded a pIC50 [2] greater than 6.00.
“NRGRQFYEFYNDVKPP [Peptide P14, OC43 envelope 62–78, naturally processed peptide eluted from HLA-DP]” was tested, and the “T cell recognition, IFN-γ ELISpot” value [5] was “not recognized” and the “IFN-γ response in ICS” value [7] was “did not produce a response”.
In the case of OC43 spike peptide 1147–1164 (P7), the pIC50 [1] was greater than 5.00.
Work on OC43 spike peptide 97–111 (P3) yielded a pIC50 [1] greater than 5.00.
With “DFINGIFAKVKNTKVIK [Peptide P12, OC43 spike 98–114, naturally processed peptide eluted from HLA-DR]” the pIC50 [8] was no more than 6.00, the pIC50 [4] was greater than 6.00 and the “binding to DR2a / DR2b allotypes” value [6] was “bound exclusively to DR2a”.
Work on OC43 spike peptide 98–114 (P12) yielded a pIC50 [9] greater than 6.00 and a pIC50 [2] of less than 6.00.
With “LTALNAYVSQQLSDS [Peptide P11, OC43 spike 1085–1099, naturally processed peptide eluted from HLA-DR]” the SARS-CoV-2 cross-reactivity [10] was “yes” and the “minimal activating peptide concentration” value ([5]; donor 07) was 1 µg/mL.
In the case of “SRQYLLAFNQDGIIFN [Peptide P13, OC43 spike 271–286, naturally processed peptide eluted from HLA-DR]”, the pIC50 [8] was greater than 6.00, the “T cell recognition, IFN-γ ELISpot” value [5] was “not recognized” and the “IFN-γ response in ICS” value [7] was “did not produce a response”.
In the case of OC43 spike peptide 1140–1155 (P6), the pIC50 [1] was less than 5.00.
In the case of “OC43 hemagglutinin esterase peptide 128–142 (P9)”, the pIC50 [11] was greater than 6.00 and the pIC50 [3] was greater than 6.00.
Substance “APYGLYFIHFSYVPTK [Peptide P6, OC43 spike 1140–1155, naturally processed peptide eluted from HLA-DP]” has a pIC50 [12] of no more than 5.00.
With “PSGGNVVPYYSWFSG [Peptide P10, OC43 nucleoprotein 54–68, naturally processed peptide eluted from HLA-DR]” the “minimal activating peptide concentration” value ([5]; donors 18, 22, and 40) was 10^−5 μg/mL and the minimal peptide concentrations ([5]; responding CD4 T cells, discussion) was “about 10 pg/mL”.
“EGQQIIFYEGVNFTP [Peptide P8, OC43 hemagglutinin esterase 93–107, naturally processed peptide eluted from HLA-DR]” was tested, and the “T cell recognition, IFN-γ ELISpot” value [5] was “not recognized” and the “IFN-γ response in ICS” value [7] was “did not produce a response”.
“GAFFFGSRLELAKVQN [Peptide P2, OC43 nucleoprotein 321–336, naturally processed peptide eluted from HLA-DP]” was tested, and the pIC50 [12] was no more than 5.00 and the “minimal activating peptide concentration” value ([5]; expanded cells from donor 61) was 10^−6 μg/mL.
For OC43 spike peptide 760–773 (P5), the pIC50 [1] was greater than 6.00.
With “LSDFINGIFAKVKNTK [Peptide P3, OC43 spike 97–111, naturally processed peptide eluted from HLA-DP]” the “minimal activating peptide concentration” value ([5]; expanded cells from donor 61) was 10^−7 μg/mL.
With “YLAISNELLLTVPTK [Peptide P1, OC43 hemagglutinin esterase 259–273, naturally processed peptide eluted from HLA-DP]” the pIC50 [12] was greater than 6.00.
OC43 nucleoprotein peptide 321–336 (P2) showed a pIC50 [1] of less than 5.00.
Substance OC43 nucleoprotein peptide 54–68 (P10) has a pIC50 [2] greater than 6.00.
In the case of “ITTGYRFTNFEPFT [Peptide P5, OC43 spike 760–773, naturally processed peptide eluted from HLA-DP]”, the pIC50 [12] was greater than 6.00.
Substance OC43 spike peptide 903–917 (P4) has a pIC50 [1] greater than 5.00.
